For one data set, the system named is OCI-Ly8 LAM53. Description: Cell viability by DiOC6 staining, flow cytometry. In kind it is cell-based. The conditions noted are these: Homo sapiens. As for the experimental part:
(§1) Experiments were performed as reported recently.
(§2) PBL derived from healthy individuals were used as controls. […] ND, not done.
On the technique in general: In flow cytometry, cells or beads pass a laser one at a time.

The test system of the next data set is RPMI 8226. In words: Cell viability by DiOC6 staining, flow cytometry. In kind it is cell-based. To be noted: Homo sapiens, 72 h, 1x10^5 cells cultured three days, various concentrations. As for the experimental part:
as §1, §2

A further data set concerns Raji. In words: Cell viability by DiOC6 staining, flow cytometry. It is filed as cell-based. The conditions noted are these: Homo sapiens. As for the experimental part: as §1, §2
Another data set has as its system SU-DHL 4. In words: Cell viability by DiOC6 staining, flow cytometry. It is filed as cell-based. The conditions noted are these: Homo sapiens. As to the method: as §1, §2
The test system of the next data set is U266. Description: Cell viability by DiOC6 staining, flow cytometry. It is filed as cell-based. To be noted: Homo sapiens, U-266, 72 h, 1x10^5 cells cultured three days, various concentrations. As to the method:
as §1, §2

The nature of data set [1]: Cell viability by DiOC6 staining, flow cytometry (normal control cells). To be noted: human; control of PBMC; after 72 h; read-out: relative viability. It is filed as cell-based, human. As to the method: PBMCs were isolated from blood of healthy donors by Ficoll-Hypaque density gradient centrifugation. Blood from buffy coats was mixed 1:2 with PBS/1% BSA (both PAA, Cölbe, Germany) and used for a ficoll gradient (LymphoPrep, PAA, Cölbe, Germany). After the centrifugation at 800 g for 30 minutes, the leukocyte layer was removed and transferred to new tubes. Subsequently, these cells were washed 3 times with PBS/1%BSA and re-suspended in fresh medium, consisting of RPMI medium (PAA, Cölbe, Germany) with 10% fetal calf serum (Invitrogen, Karlsruhe, Germany), 2.5% hepes buffer solution (PAA, Cölbe, Germany), and 1% penicillin/streptomycin (PAA, Cölbe, Germany).
as §1

A further data set concerns lymphoma cell lines. Description: Cell viability by DiOC6 staining in lymphoma cell lines. It is filed as cell-based, human. To be noted: result in words. As for the experimental part: as §1, §2
A further data set relates to MPC11 myeloma cells. The conditions noted are these: 750 µg lenalidomide/day. As to the method:
All animal experiments were done at least in duplicate with groups of 6 BALB/c mice (Charles River, Sulzfeld, Germany). 5x10^5 MCP11 murine myeloma cells were injected per mouse subcutaneously into Balb/c mice. […] Overall survival and tumor growth were measured. Tumor volume was calculated as follows: volume = length x width^2 x 0,52. Animals were killed when tumor volume reached 2000 mm^3.
• Figure 1. […] 1x10^5 cells were cultured with different compounds for three days. The concentration of thalidomide was U266 160µM for U266, RPMI 20µM for RPMI, and OPM 40µM for OPM cells. Then cell viability was measured by DIOC6 staining in flow cytometry. Results represent data from three, two and five separate experiments, respectively. Separate U266 n=3, RPMI n=2, OPM n=5 experiments. Data are shown as mean ± SD. • Figure 2. […] 1x10^5 OPM cells were cultured with the different compounds for three days. The concentration of lenalidomide was 12µM for OPM and 80µM for RPMI cells. Then cell viability was measured by DIOC6 staining in flow cytometry. Results represent data from eight and five OPM n=8, RPMI n=5 separate experiments, respectively. Data are shown as mean ± SD. • Figure 3. […] (A) Flow cytometric results. […] Western Blot analysis for the detection of β-catenin in myeloma cell lines under normal conditions. The myeloma cell lines RPMI 8226, KMS-18 and U266 were analyzed according to their β-catenin expression. • Figure 4B. […] As primary antibodies purified mouse anti-β-catenin and β-actin were used at a dilution of 1:1000 and as secondary antibody served goat anti-mouse IgG-HRP at a dilution of 1:5000. Finally, ECL reagent was utilized for detection. • Figure 4C. […] As primary antibodies Purified mouse anti-β-catenin and β-actin were used at a dilution of 1:1000 and as secondary antibody served goat anti-mouse IgG-HRP at a dilution of 1:5000. Finally, ECL reagent was utilized for detection. • Figure 5. […] Results represent data from two separate experiments. Data are shown as mean. • Figure 6. […] BALB/c mice were injected with 5x10^5 MPC11 myeloma cells subcutaneously. (A) Tumor growth and (B) overall survival were measured. Six animals were assayed per group.
All animal experiments were done at least in duplicate with groups of 6 BALB/c mice (Charles River, Sulzfeld, Germany). 5x10^5 MCP11 murine myeloma cells were injected per mouse subcutaneously into Balb/c mice. Mice were treated orally with 450µg/day CIC and 750 µg lenalidomide/day, respectively. Overall survival and tumor growth were measured. Tumor volume was calculated as follows: volume = length x width^2 x 0,52. Animals were killed when tumor volume reached 2000 mm^3.
• Figure 7. […] 1x10^5 cells were cultured with different compounds for three days. The concentration of thalidomide was U266 160µM for U266, RPMI 20µM for RPMI, and OPM 40µM for OPM cells. Then cell viability was measured by DIOC6 staining in flow cytometry. Results represent data from three, two and five separate experiments, respectively. Separate U266 n=3, RPMI n=2, OPM n=5 experiments. Data are shown as mean ± SD. • Figure 8. […] 1x10^5 OPM cells were cultured with the different compounds for three days. The concentration of lenalidomide was 12µM for OPM and 80µM for RPMI cells. Then cell viability was measured by DIOC6 staining in flow cytometry. Results represent data from eight and five OPM n=8, RPMI n=5 separate experiments, respectively. Data are shown as mean ± SD. • Figure 9. […] (A) Flow cytometric results. (B) We analyzed the effect of CIC on the Wnt/beta catenin pathway by Western blot. • Figure 10A. Western Blot analysis for the detection of β-catenin in myeloma cell lines under normal conditions. The myeloma cell lines RPMI 8226, KMS-18 and U266 were analyzed according to their β-catenin expression. • Figure 10B.

Data set [2] deals with Wnt/β-catenin target genes, including LEF-1, cyclin D1 and fibronectin. The conditions noted are these: CLL cells exposed to EA; cited from earlier work.
The target of another data set is LEF-1 protein (Homo sapiens, UniProt Q9UJU2). The conditions noted are these: immune co-precipitation; destabilizes the LEF-1/β-catenin complex; cited from earlier work.
The next data set relates to PBL. Description: Cell viability by DiOC6 staining, flow cytometry (normal control cells). To be noted: Homo sapiens, PBL, 72 h.

Read-outs that look alike come from different tables or passages of the source.

LEF-1 protein, sequence (Q9UJU2 whole entry): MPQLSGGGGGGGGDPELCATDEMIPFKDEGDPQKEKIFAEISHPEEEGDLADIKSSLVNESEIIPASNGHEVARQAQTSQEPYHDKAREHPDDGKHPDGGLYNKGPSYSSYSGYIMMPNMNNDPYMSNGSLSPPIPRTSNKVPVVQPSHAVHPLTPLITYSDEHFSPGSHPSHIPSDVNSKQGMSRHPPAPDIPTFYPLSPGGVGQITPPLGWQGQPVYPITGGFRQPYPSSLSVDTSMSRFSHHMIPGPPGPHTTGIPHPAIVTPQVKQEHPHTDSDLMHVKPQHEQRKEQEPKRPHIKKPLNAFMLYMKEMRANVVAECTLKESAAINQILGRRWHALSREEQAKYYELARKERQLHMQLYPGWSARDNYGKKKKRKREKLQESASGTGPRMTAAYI
Experimental for PBL: Peripheral blood mononuclear cells (PBMC) and PBL were isolated from blood samples of healthy volunteers by Ficoll density gradient centrifugation (Lymphoprep, Nycomed, Oslo, Norway).
1x10^5 Cells were cultured in 3 ml Medium in 6-well plates. […] The apoptosis assay was performed with 3'3-dihexyloxacarbocyanine iodide (DiOC6) detecting mitochondrial membrane potential in viable cells, and propidium iodide (PI) which binds to DNA in necrotic cells, measured by a fluorescence-activated cell sorter (FACS).
For FACS analysis, 500µl staining solution containing 80 nM DiOC6 in FACS buffer, consisting of deficient RPMI-medium with 0.5% bovine serum albumin (BSA), was mixed with equal volumes of the cell sample in a glass tube and incubated at 37°C for 15 min. After a washing step with PBS/BSA 1% the cells were re-suspended in 500µl PBS/BSA 1%. After addition of 5µl PI-solution (100µg/ml) the cells were analyzed by FACS. Using this assay, viable cells reveal high fluorescence intensity for DiOC6 and a low expression for PI. In contrary, apoptotic cells show a low expression for DiOC6 and also a low expression for PI (2). Finally, necrotic cells show a low expression for DiOC6 and a high expression for PI.
PBMC and PBL derived from healthy individuals were used as normal controls. 1x10^5 cells were cultured with each compound using various concentrations for three days. Then cell viability was measured by DIOC6 staining by flow cytometry. Results represent data from two to four separate experiments each.
PBMC and PBL derived from healthy individuals were used as normal controls. 1x10^5 cells were cultured with each compound using various concentrations for three days. Then cell viability was measured by DIOC6 staining by flow cytometry. Results represent data from 2 to 4 separate experiments each.
1x10^5 Cells were cultured in 3 ml Medium in 6-well plates. […] The apoptosis assay was performed with 3' 3-dihexyloxacarbocyanine iodide (DiOC6) detecting mitochondrial membrane potential in viable cells, and propidium iodide (PI) which binds to DNA in necrotic cells, measured by a fluorescence-activated cell sorter (FACS).
PBL derived from healthy individuals were used as controls. 1x10^5 cells were cultured with each compound using various concentrations for three days. Then cell viability was measured by DIOC6 staining by flow cytometry and IC 50 rates were determined. Results represent data from 2 to 4 separate experiments each.
PBMC and PBL derived from healthy individuals were used as controls. 1x10^5 cells were cultured with each compound using various concentrations for three days.

As to `C=C(CC)C(=O)c1ccc(OCC(=O)O)c(Cl)c1Cl` [EA, 2-[2,3-dichloro-4-(2-methylidenebutanoyl)phenoxy] acetic acid], the IC50 in the data set with OCI-Ly8 LAM53 (72 h, OCI-Ly8 LAM53, 1x10^5 cells cultured three days, various concentrations) turned out to be 57 µM; in the data set with RPMI 8226, 8 µM; in the data set on Raji (72 h, 1x10^5 cells cultured three days, various concentrations), 33 µM; in the data set on SU-DHL 4 (72 h, SU-DHL 4, 1x10^5 cells cultured three days, various concentrations), 58 µM; with U266, 60 µM; in the data set on PBL, 10 µM. Also, the viability at 72 h, 30 µM in data set [1] stood at 89.5 ± 3.1%. The “viability of lymphoma cell lines in vitro” value in the data set on lymphoma cell lines is listed as “significantly (p<0.05) decreased”. In the data set with MPC11 myeloma cells (oral 450µg/day EA, compared to mice treated with lenalidomide alone, p<0.001), the Tumor growth result is “significantly reduced”. In data set [2], the “expression of Wnt/β-catenin target genes” value is recorded as “decreased”. In addition, the “binding to LEF-1 protein” value at LEF-1 protein was “directly bind”.

Turning to `Cc1cc(C2CCCCC2)n(O)c(=O)c1` [CIC, ciclopirox olamine], the IC50 with OCI-Ly8 LAM53 (OCI-Ly8, LAM-53, after 72 h) was determined as 2 µM; in the data set with RPMI 8226, 6 µM; with Raji (after 72 h), 6 µM; in the data set on SU-DHL 4 (SU-DHL-4, after 72 h), 7 µM; with U266, 6 µM; with PBL it was 9 µM. Besides, the “viability of lymphoma cell lines in vitro” value in the data set with lymphoma cell lines is “significantly (p<0.05) decreased”. For the same compound, in the data set with MPC11 myeloma cells (oral 450µg/day CIC, compared to control mice), the Tumor growth entry is recorded as “significantly reduced”.

Broadly, the IC50 is the concentration at which inhibition is half-maximal. A lower IC50 goes with greater potency. The term viability denotes a per cent measure of how many cells are alive, often set against a control.

The values above are taken from patent EP3318253B1, “COMPOSITIONS COMPRISING WNT INHIBITORS FOR TREATING CANCER” (Schmidt-Wolf, Ingo, priority 2010, dated 2012).
